Results on four compounds are retold here after US20230331767A1, “TARGETED STEROID COMPOUNDS” (priority 2020, published 2023).

Assay [1] deals with macrophage. In words: Flow cytometry of macrophage, CD 86 expression (M1 marker). The assay is classed as cell-based, ND4 mice. Particulars: 20 nanomolar compound, with or without folate-glucosamine competition; treatment for 24 hours. How it is done:
FIG. 6 is an example of compound 101 in flow cytometry of macrophage gated on F4/80 to show CD 206 expression (a marker for M2, anti-inflammatory macrophages). Briefly, 1.5 mL of 3% thioglycolate were injected into the intraperitoneal cavity of 12-week-old ND4 mice. Three days later the macrophages were isolated by intraperitoneal lavage and plated in a 12-well dish and incubated at 37° C./5% CO2. […] 1 or 20 nanomolar of the compound in FIG. 1 plus 100-fold excess folate-glucosamine (to show receptor-specific binding) or untreated control or 10 nanomolar free dexamethasone (to show the effect of the free drug) and allowed to incubate at 37° C./5% CO2 for the allotted time. […] The samples were then washed 3 times with ice-cold 1% FBS in PBS before being analyzed by flow cytometry.
FIG. 8 is an example of Compound 101 in flow cytometry of macrophage to show CD 86 expression with controls.
(Flow cytometry measures light scatter and fluorescence of single cells or particles in a stream.)

Assay [2] relates to macrophage. In words: Flow cytometry of thioglycolate-elicited peritoneal macrophages gated on F4/80, CD 206 expression (M2 marker). Conditions: 20 nanomolar; targeted group vs competition group (plus 100-fold excess folate-glucosamine); macrophage gated on F4/80. Type of assay: cell-based, ND4 mice. Here is the method:
FIG. 6 is an example of compound 101 in flow cytometry of macrophage gated on F4/80 to show CD 206 expression (a marker for M2, anti-inflammatory macrophages). Briefly, 1.5 mL of 3% thioglycolate were injected into the intraperitoneal cavity of 12-week-old ND4 mice. Three days later the macrophages were isolated by intraperitoneal lavage and plated in a 12-well dish and incubated at 37° C./5% CO2. After 24 hours, the media was replaced with media containing 20 nanomolar the compound in FIGS. 1 or 20 nanomolar of the compound in FIG. 1 plus 100-fold excess folate-glucosamine (to show receptor-specific binding) or untreated control or 10 nanomolar free dexamethasone (to show the effect of the free drug) and allowed to incubate at 37° C./5% CO2 for the allotted time. Then 3 days later the cells were detached and incubated with the corresponding fluorescently labeled antibodies for 1 hour at 4° C. in 1% fetal bovine serum (FBS) in phosphate- buffered saline (PBS). The samples were then washed 3 times with ice-cold 1% FBS in PBS before being analyzed by flow cytometry.

Assay [3] deals with F4/80 (mouse macrophage), CD4 (T helper cell), CD8 (cytotoxic T cell), and Ly6G (neutrophil) cells. In words: Thioglycollate-induced peritonitis, flow cytometry of peritoneal lavage cells. Type of assay: in vivo, BALB/C or Swiss Webster mice. Particulars: treated group vs the untreated or vehicle, peritoneal cavity; for percentage of F4/80 macrophages: 10 nmol I.V. 48 hrs after induction stated for Compound 107. How it is done:
Induced peritonitis with 1.5 mL 3% thioglycollate injected I.P. into either BALB/C or Swiss Webster mice maintained on a folate free diet for at least three weeks and treated with 10 nmol Compound 107 injected I.V. 48 hrs after induction. After an additional 48 hrs the mice were euthanized, and peritoneal lavage was performed using 2% fetal bovine serum (FBS) in phosphate buffered saline (PBS). Cells were passed through a 70 µm cell filter to remove debris then counted using a hemocytometer. Approximately 1 million cells pre-incubated in anti-CD16/32 (to block endogenous Fc receptor binding) for one hour on ice in 100 µL of 2% FBS in PBS. Then the cells incubated with at least one of the following fluorescently labeled antibodies for cell surface markers: PE-F4/80 or PE/Cy7-F4/80 (mouse macrophage), FITC-CD4 (T helper cell), eFluor780-CD8 (cytotoxic T cell), and PerCP/Cy5.5-Ly6G (neutrophil) according to the manufacturers recommended procedure on ice for 1 hour. Cells were washed twice with 1 mL of ice cold 2% FBS in PBS then suspended in 2% FBS in PBS. Controls included unstained cells as the negative control as well as the use of 1 drop of compensation beads per dye-antibody (1 µL) for a positive control incubated for 1 hour on ice and washed twice with 1 mL 2% FBS in PBS. All samples were centrifuged at 400xg for 10 min between washes, transfers and after incubation to remove supernatant.
Samples and appropriate controls were analyzed on an Attune NxT Acoustic Focusing Cytometer collecting between 10,000 and 30,000 events per sample utilizing laser lines BL1-A, BL2-A, BL3-A, and YL4-A for FITC-CD4, PE-F4/80, PerCP/Cy5.5-Ly6G and eFluor780-CD8 or PE/Cy7-F4/80, respectively. Flow cytometry data analysis involved first observing the cells run in the experiment using forward and side-scattering light (FSC and SSC, respectively). All observed cells were gated (R1) and analyzed for relative abundance of F4/80 (mouse macrophage), CD4 (T helper cell), CD8 (cytotoxic T cell), and Ly6G (neutrophil) cells within the population. Values from quadrant gating based on negative controls were then represented in bar graph form.

The test system of the next assay is colon. Particulars: 10nmols i.v. on days 3 and 4; 2.5% DSS for 6 days; treated vs untreated colon, day 6. Here is the method: 8-12 week old C57BL/6 mice were maintained on a folate free diet for at least three week dextran sodium sulfate (DSS) was added to their drinking water at a final concentration of 2.5% for 6 days. […] On day 6 the mice were euthanized by CO2 affixation followed by cervical dislocation. Then the colons were excised and prepared for histology as described previously (J Vis Exp. 2012; (60): 3678.). Briefly, the colons were cut out and the fecal contents were gently removed and washed in PBS. The colons were fixed in 10% buffered formalin for 24 hrs followed by transfer to 70% ethanol. These samples were submitted to the Purdue Veterinary Pathology lab where they were embedded in paraffin, sectioned, and stained with hematoxylin and eosin.

With `C[C@H]1C[C@@H]2[C@H]3CCC4=CC(=O)C=C[C@@]4(C)[C@]3(F)[C@H](O)C[C@@]2(C)[C@]1(O)C(=O)COC(=O)NCCSSC(C)(C)C(NC(=O)c1ccc(NCc2cnc3nc(N)[nH]c(=O)c3n2)cc1)C(=O)O` (some centres unmarked) [Compound 101, Folate-Hydrolink-Cysteine-Carbonate-Dexamethasone], the “CD 86 expression (marker for M1, pro-inflammatory macrophages)” value in the assay on macrophage [1] is “no observable differences”. Also, the “CD 206 expression (marker for M2, anti-inflammatory macrophages)” value with macrophage [2] is “Increased expression of CD 206 in the targeted group over the competition group”.

In the case of “Folate-AlbuminBinder-PEG2-Hydrolink-DimethylCysteine-Carbamate-Dexamethasone [Compound 107]”, in assay [3], the “percentage of FITC-CD4 (T helper cell)” value was “lower”, the “percentage of PerCP/Cy5.5-Ly6G (neutrophil)” value is given as “lower”, the “percentage of eFluor780-CD8 (cytotoxic T cell)” value is recorded as “lower” and the “percentage of F4/80 macrophages” value is listed as “lower”. Moreover, in the assay with colon, the “crypt architecture (colon histology)” value is given as “more crypt architecture”, the “infiltrating immune cells (colon histology)” value is listed as “fewer infiltrating immune cells” and the “number of goblet cells (colon histology)” value is “higher number of goblet cells”.

Take “Folate-PEG2-Hydrolink-DimethylCysteine-Carbamate-Dexamethasone [Compound 106]”: in assay [3], the “percentage of F4/80 macrophages” value is recorded as “lower”.

Take “Folate-PEG12(CH2)-Pyrophosphate-Dexamethasone [Compound 108]”: in assay [3], the “percentage of FITC-CD4 (T helper cell)” value is “lower”, the “percentage of PerCP/Cy5.5-Ly6G (neutrophil)” value was “lower”, the “percentage of eFluor780-CD8 (cytotoxic T cell)” value is “lower” and the “percentage of F4/80 macrophages” value was “lower”.
